Data published in ChEMBL document CHEMBL4152254, “Pyridinyl- and pyridazinyl-3,6-diazabicyclo[3.1.1]heptane-anilines: Novel selective ligands with subnanomolar affinity for α4β2 nACh receptors” (Eur J Med Chem, 2018).
The source made the active and inactive calls. The rule behind the calls is not given here.

Columns and labels:
[1] = biological target: T1, Neuronal acetylcholine receptor; alpha4/beta2 (Homo sapiens, UniProt P17787+P43681); experiment: Agonist activity at alpha4beta2 nAChR (unknown origin); type: protein-complex assay
[2] = biological target: Neuronal acetylcholine receptor subunit alpha-7 (Rattus norvegicus, UniProt Q05941); experiment: Displacement of [125I]alpha-bungarotoxin from alpha7 nAChR in rat hippocampal membranes; type: cell membranes
[3] = biological target: Neuronal acetylcholine receptor; alpha4/beta2 (Rattus norvegicus, UniProt P09483+P12390); experiment: Displacement of [3H]epibatidine from alpha4beta2 nAChR in rat cortex membranes; type: cell membranes
Rattus norvegicus = species on record: Rattus norvegicus; experiment: Selectivity ratio of Ki for alpha7 nAChR in rat hippocampal membranes to Ki for alpha4beta2 nAChR in rat cortex membranes; type: cell membranes
[4] = biological target: T2, Neuronal acetylcholine receptor; alpha3/beta4 (Homo sapiens, UniProt P30926+P32297); experiment: Displacement of [3H]epibatidine from human alpha3beta4 nAChR expressed in HEK293 cell membranes
[5] = Selectivity ratio of Ki for human alpha3beta4 nAChR expressed in HEK293 cell membranes to Ki for alpha4beta2 nAChR in rat cortex membranes; type: cell-based
[6] = biological target: Neuronal acetylcholine receptor subunit alpha-7 (Homo sapiens) (UniProt P36544); experiment: Agonist activity at human alpha7 nAChR expressed in rat GH4C1 cells assessed as inward channel current amplitude at 100 uM at -70 mV holding potential by whole cell electrophysiology method; type: cell-based
[7] = biological target: T2, Neuronal acetylcholine receptor; alpha3/beta4; experiment: Agonist activity at human alpha3beta4 nAChR expressed in rat GH4C1 cells assessed as inward channel current amplitude at -70 mV holding potential by whole cell electrophysiology method; type: cell-based
[8] = biological target: T1, Neuronal acetylcholine receptor; alpha4/beta2; experiment: Agonist activity at human alpha4beta2 nAChR expressed in rat GH4C1 cells assessed as inward channel current amplitude at -70 mV holding potential by whole cell electrophysiology method; type: cell-based
[9] = biological target: T2, Neuronal acetylcholine receptor; alpha3/beta4; experiment: Agonist activity at human alpha3beta4 nAChR expressed in rat GH4C1 cells assessed as inward channel current amplitude at 100 uM at -70 mV holding potential by whole cell electrophysiology method relative to acetylcholine; type: cell-based
[10] = biological target: T1, Neuronal acetylcholine receptor; alpha4/beta2; experiment: Agonist activity at human alpha4beta2 nAChR expressed in rat GH4C1 cells assessed as inward channel current amplitude at 100 uM at -70 mV holding potential by whole cell electrophysiology method relative to acetylcholine; type: cell-based

Chain of Neuronal acetylcholine receptor; alpha4/beta2 (Rattus norvegicus, UniProt P09483+P12390) (P09483 whole entry): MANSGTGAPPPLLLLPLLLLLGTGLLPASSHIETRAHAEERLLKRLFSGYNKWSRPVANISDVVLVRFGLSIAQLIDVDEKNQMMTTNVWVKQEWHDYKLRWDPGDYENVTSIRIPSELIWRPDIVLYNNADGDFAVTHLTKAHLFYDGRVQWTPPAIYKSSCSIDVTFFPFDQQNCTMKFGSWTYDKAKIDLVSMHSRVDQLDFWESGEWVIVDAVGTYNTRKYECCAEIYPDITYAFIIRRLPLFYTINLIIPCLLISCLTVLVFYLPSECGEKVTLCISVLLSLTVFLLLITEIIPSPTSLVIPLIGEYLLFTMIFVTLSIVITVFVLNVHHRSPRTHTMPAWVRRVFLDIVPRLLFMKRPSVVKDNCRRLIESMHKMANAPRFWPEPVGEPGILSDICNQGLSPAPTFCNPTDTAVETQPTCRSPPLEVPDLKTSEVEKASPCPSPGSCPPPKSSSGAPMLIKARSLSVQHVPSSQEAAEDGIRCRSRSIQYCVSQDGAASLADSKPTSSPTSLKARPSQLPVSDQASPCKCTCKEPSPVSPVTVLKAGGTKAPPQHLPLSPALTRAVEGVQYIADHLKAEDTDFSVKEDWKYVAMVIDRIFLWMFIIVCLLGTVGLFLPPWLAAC
Chain of Neuronal acetylcholine receptor; alpha4/beta2 (Rattus norvegicus, UniProt P09483+P12390) (P12390 whole entry): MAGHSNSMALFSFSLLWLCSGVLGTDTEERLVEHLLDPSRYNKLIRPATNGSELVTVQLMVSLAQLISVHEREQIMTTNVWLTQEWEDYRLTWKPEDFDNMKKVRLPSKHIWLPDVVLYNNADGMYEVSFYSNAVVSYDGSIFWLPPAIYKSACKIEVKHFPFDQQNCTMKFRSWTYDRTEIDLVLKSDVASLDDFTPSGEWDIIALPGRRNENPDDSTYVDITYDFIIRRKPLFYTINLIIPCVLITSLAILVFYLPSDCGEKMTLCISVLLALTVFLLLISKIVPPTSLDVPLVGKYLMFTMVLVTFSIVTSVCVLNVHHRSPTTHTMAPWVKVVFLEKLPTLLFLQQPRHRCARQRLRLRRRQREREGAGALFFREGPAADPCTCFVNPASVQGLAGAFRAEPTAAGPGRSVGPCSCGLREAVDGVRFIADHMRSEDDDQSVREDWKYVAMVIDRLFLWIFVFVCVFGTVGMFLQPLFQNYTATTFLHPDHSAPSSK
T2 sequence (P30926 whole entry): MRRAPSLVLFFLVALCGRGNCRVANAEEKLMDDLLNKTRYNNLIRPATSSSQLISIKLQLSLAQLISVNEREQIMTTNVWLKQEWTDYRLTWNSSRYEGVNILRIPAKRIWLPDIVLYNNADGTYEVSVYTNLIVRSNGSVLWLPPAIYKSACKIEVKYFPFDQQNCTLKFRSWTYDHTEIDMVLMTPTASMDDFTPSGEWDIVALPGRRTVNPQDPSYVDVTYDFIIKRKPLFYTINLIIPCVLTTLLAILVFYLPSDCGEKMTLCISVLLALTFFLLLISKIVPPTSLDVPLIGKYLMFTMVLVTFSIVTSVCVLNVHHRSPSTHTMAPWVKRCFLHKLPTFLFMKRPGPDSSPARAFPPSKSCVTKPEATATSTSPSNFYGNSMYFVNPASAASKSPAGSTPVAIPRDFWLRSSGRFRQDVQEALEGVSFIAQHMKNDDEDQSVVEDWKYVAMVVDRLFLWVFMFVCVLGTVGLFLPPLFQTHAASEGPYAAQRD
T2 sequence (P32297 whole entry): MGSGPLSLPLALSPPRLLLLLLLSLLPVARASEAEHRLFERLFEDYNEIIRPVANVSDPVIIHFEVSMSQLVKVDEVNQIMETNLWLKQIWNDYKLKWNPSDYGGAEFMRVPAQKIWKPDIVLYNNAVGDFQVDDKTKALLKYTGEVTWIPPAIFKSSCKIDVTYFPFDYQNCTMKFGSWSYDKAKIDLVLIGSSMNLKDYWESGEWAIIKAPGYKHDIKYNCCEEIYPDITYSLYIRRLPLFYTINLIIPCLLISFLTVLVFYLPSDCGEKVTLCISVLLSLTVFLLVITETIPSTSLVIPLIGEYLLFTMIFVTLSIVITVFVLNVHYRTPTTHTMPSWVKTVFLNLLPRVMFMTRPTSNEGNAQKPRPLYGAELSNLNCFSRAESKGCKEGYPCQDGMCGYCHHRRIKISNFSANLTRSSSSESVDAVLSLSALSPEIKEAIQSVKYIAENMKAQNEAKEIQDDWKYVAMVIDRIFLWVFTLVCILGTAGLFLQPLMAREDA
T1 sequence (P17787 whole entry): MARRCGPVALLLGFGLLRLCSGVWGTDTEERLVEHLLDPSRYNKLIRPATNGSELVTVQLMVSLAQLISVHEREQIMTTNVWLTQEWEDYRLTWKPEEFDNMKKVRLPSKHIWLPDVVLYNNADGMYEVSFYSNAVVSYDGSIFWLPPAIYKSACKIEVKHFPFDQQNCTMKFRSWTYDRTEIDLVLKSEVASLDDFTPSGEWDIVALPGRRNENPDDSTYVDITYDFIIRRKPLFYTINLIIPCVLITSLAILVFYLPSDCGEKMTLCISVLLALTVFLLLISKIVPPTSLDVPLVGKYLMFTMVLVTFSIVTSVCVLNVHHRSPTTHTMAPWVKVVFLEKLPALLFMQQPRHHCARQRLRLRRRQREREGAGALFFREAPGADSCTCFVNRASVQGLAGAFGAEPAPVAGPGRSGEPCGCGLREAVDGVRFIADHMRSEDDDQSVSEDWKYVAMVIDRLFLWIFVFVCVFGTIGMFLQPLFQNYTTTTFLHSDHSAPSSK
T1 sequence (P43681 whole entry): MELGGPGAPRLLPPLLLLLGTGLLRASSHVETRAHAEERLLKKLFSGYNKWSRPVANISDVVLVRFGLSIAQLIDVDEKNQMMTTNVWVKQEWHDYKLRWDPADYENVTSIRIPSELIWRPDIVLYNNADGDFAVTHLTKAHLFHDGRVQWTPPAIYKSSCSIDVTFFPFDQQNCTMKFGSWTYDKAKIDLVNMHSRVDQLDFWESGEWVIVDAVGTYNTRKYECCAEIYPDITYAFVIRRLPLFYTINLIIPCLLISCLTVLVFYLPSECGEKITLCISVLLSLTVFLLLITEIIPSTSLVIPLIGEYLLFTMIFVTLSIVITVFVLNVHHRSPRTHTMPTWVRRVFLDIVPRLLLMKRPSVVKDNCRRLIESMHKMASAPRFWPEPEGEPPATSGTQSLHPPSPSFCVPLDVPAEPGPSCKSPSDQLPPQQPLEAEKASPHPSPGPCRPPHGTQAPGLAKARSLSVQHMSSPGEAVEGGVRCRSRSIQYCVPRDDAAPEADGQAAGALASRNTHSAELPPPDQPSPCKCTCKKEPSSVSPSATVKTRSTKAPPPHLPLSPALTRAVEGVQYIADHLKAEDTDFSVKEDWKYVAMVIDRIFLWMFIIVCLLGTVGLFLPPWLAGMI
Chain of Neuronal acetylcholine receptor subunit alpha-7 (Q05941 whole entry): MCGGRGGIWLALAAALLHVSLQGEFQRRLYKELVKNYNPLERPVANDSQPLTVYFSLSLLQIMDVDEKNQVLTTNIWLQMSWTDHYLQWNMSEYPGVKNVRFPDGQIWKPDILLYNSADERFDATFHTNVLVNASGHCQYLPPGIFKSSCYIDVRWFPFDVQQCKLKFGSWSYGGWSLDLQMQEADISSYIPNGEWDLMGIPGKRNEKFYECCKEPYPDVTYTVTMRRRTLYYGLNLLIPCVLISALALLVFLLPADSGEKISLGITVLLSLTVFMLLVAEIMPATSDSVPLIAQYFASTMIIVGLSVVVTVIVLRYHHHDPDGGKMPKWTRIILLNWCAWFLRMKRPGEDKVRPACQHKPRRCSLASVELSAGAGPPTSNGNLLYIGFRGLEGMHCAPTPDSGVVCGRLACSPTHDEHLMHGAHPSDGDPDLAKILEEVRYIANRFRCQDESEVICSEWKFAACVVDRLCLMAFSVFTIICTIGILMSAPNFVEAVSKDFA
Chain of Neuronal acetylcholine receptor subunit alpha-7 (Homo sapiens) (P36544 whole entry): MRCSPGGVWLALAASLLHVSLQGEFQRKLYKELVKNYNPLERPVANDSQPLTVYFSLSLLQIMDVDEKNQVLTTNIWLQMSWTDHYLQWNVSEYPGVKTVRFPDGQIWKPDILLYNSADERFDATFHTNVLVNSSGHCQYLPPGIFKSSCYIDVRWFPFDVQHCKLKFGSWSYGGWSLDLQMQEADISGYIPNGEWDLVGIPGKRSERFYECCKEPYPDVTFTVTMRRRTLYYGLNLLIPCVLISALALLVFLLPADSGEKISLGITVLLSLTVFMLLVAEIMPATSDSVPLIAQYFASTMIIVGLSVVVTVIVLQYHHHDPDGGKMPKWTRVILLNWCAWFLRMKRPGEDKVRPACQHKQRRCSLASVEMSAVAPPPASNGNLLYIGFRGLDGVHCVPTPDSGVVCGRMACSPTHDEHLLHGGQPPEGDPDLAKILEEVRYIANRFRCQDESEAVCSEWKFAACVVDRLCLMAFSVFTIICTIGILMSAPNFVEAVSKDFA

| Structure (SMILES) | Ki [2] | Ki [3] | Ratio Ki (Rattus norvegicus) | Ki [4] | Ratio Ki [5] | further results |
| --- | --- | --- | --- | --- | --- | --- |
| c1cncc(N2CC3CCC(C2)N3)c1 | – | – | – | – | – | Ki [1]: 0.4 nM |
| Clc1ccc(N2CC3CCC(C2)N3)nn1 | – | – | – | – | – | Ki [1]: 4.1 nM |
| c1ccc(Nc2ccc(N3CC4CC(C3)N4)nn2)cc1 | 10400 nM | 441 nM | 24 | – | – | – |
| Oc1ccc(Nc2ccc(N3CC4CC(C3)N4)cn2)cc1 | 2200 nM | 7.1 nM | 310 | 165 nM | 23 | – |
| Clc1ccc(Nc2ccc(N3CC4CC(C3)N4)cn2)cc1 | 823 nM | 2.49 nM | 330 | – | – | – |
| COc1ccc(Nc2ccc(N3CC4CC(C3)N4)cn2)cc1 | 3010 nM | 7.3 nM | 412 | 9.03 nM | 1 | – |
| O=[N+]([O-])c1ccc(Nc2ccc(N3CC4CC(C3)N4)cn2)cc1 | 4100 nM | 1.76 nM | 2330 | 25 nM | 14 | Activity [6]: inactive; EC50 [7]: > 10000 nM; EC50 [8]: > 10000 nM |
| Cc1ccc(Nc2ccc(N3CC4CC(C3)N4)cn2)cc1 | 88800 nM | 52.1 nM | 1700 | – | – | – |
| FC(F)(F)c1ccc(Nc2ccc(N3CC4CC(C3)N4)nn2)cc1 | 2030 nM | 6.9 nM | 294 | 115 nM | 17 | – |
| Fc1ccc(Nc2ccc(N3CC4CC(C3)N4)nn2)cc1 | 111000 nM | 868 nM | 128 | – | – | – |
| Clc1ccc(N2CC3CC2CN3)cn1 (centres undefined) | – | – | – | – | – | Ki [1]: 0.018 nM |
| CN(c1ccccc1)c1cncc(N2CC3CC(C2)N3)c1 | 317 nM | 2.06 nM | 154 | – | – | – |
| FC(F)(F)c1ccc(Nc2ccc(N3CC4CC(C3)N4)cn2)cc1 | 235 nM | 0.569 nM | 413 | 0.818 nM | 1 | – |
| Clc1cccc(Nc2ccc(N3CC4CC(C3)N4)cn2)c1 | 3300 nM | 2.2 nM | 1500 | 4.8 nM | 2 | – |
| Clc1cccc(Nc2ccc(N3CC4CC(C3)N4)nn2)c1 | 41800 nM | 1540 nM | 27 | – | – | – |
| O=[N+]([O-])c1ccc(Nc2cncc(N3CC4CC(C3)N4)c2)cc1 | 241 nM | 0.0225 nM | 10700 | 0.684 nM | 30 | – |
| Clc1ccc(N2CC3CCC(C2)N3)cn1 | – | – | – | – | – | Ki [1]: 0.95 nM |
| Clc1ccc(Nc2cncc(N3CC4CC(C3)N4)c2)cc1 | 116 nM | 0.118 nM | 983 | 1.2 nM | 10 | – |
| Cc1ccc(Nc2cncc(N3CC4CC(C3)N4)c2)cc1 | 300 nM | 0.148 nM | 2030 | 1.4 nM | 9 | – |

| Structure (SMILES) | Ki [2] | Ki [3] | Ratio Ki (Rattus norvegicus) | Ki [4] | Ratio Ki [5] | further results |
| --- | --- | --- | --- | --- | --- | --- |
| COc1ccc(Nc2ccc(N3CC4CC(C3)N4)nn2)cc1 | 50200 nM | 578 nM | 87 | – | – | – |
| c1cncc(N2C[C@H]3C[C@@H]2CN3)c1 | – | – | – | – | – | Ki [1]: 0.02 nM |
| c1ccc(Nc2cncc(N3CC4CC(C3)N4)c2)cc1 | 26.9 nM | 0.0807 nM | 333 | 0.799 nM | 10 | – |
| Clc1ccc(Nc2ccc(N3CC4CC(C3)N4)cn2)cc1Cl | 2040 nM | 2.3 nM | 887 | 40.9 nM | 18 | – |
| Clc1ccc(Nc2ccc(N3CC4CC(C3)N4)nn2)cc1Cl | 5100 nM | 516 nM | 10 | – | – | – |
| Clc1ccc(Nc2cncc(N3CC4CC(C3)N4)c2)cc1Cl | 1900 nM | 1.25 nM | 1520 | – | – | – |
| Fc1ccc(Nc2ccc(N3CC4CC(C3)N4)cn2)cc1 | 1300 nM | 2.38 nM | 546 | 13 nM | 5 | – |
| c1ccc(Nc2ccc(N3CC4CC(C3)N4)cn2)cc1 | 475 nM | 2.66 nM | 179 | – | – | – |
| Oc1ccc(Nc2cncc(N3CC4CC(C3)N4)c2)cc1 | 2100 nM | 0.342 nM | 6140 | 0.988 nM | 3 | – |
| Clc1ccc(Nc2ccc(N3CC4CC(C3)N4)nn2)cc1 | 17300 nM | 90.4 nM | 191 | – | – | – |
| COc1ccc(Nc2cncc(N3CC4CC(C3)N4)c2)cc1 | 837 nM | 0.0598 nM | 14000 | 2.2 nM | 37 | Emax [9]: 42.3%; Emax [10]: 11%; Activity [6]: inactive; EC50 [7]: 2900 nM; EC50 [8]: 1900 nM |
| Fc1ccc(Nc2cncc(N3CC4CC(C3)N4)c2)cc1 | 441 nM | 0.091 nM | 4850 | 1.25 nM | 14 | – |
| c1cncc(N2C[C@@H]3C[C@H]2CN3)c1 | – | – | – | – | – | Ki [1]: 0.15 nM |
| Cc1ccc(Nc2ccc(N3CC4CC(C3)N4)nn2)cc1 | 21700 nM | 44.3 nM | 490 | – | – | – |
| Clc1cccc(Nc2cncc(N3CC4CC(C3)N4)c2)c1 | 1200 nM | 0.124 nM | 9680 | 293 nM | 2360 | – |
| O=[N+]([O-])c1ccc(Nc2ccc(N3CC4CC(C3)N4)nn2)cc1 | 6900 nM | 86.2 nM | 80 | – | – | – |
| CN(c1ccccc1)c1ccc(N2CC3CC(C2)N3)nn1 | 101000 nM | 1430 nM | 71 | – | – | – |
| c1cc2c(cc1Nc1ccc(N3CC4CC(C3)N4)cn1)OCO2 | 6150 nM | 41 nM | 150 | – | – | – |
| FC(F)(F)c1ccc(Nc2cncc(N3CC4CC(C3)N4)c2)cc1 | 186 nM | 0.373 nM | 499 | 1.02 nM | 3 | – |
